Each structure is given as a SMILES string. A value given as a limit tells only on which side of the number the result lay.

In the experiment the target is T1, integrin α4β7 (RPMI-8866 cells) binding with recombinant human VCAM-1 (Homo sapiens, UniProt P13612+P26010).
T1 construct: lymphoma cell strain RPMI-8866 of human B cells, known to express integrin α4β7; endogenous in cells; host or cells: RPMI-8866 (human B-cell lymphoma line)
T1 sequence (P13612 34-1032): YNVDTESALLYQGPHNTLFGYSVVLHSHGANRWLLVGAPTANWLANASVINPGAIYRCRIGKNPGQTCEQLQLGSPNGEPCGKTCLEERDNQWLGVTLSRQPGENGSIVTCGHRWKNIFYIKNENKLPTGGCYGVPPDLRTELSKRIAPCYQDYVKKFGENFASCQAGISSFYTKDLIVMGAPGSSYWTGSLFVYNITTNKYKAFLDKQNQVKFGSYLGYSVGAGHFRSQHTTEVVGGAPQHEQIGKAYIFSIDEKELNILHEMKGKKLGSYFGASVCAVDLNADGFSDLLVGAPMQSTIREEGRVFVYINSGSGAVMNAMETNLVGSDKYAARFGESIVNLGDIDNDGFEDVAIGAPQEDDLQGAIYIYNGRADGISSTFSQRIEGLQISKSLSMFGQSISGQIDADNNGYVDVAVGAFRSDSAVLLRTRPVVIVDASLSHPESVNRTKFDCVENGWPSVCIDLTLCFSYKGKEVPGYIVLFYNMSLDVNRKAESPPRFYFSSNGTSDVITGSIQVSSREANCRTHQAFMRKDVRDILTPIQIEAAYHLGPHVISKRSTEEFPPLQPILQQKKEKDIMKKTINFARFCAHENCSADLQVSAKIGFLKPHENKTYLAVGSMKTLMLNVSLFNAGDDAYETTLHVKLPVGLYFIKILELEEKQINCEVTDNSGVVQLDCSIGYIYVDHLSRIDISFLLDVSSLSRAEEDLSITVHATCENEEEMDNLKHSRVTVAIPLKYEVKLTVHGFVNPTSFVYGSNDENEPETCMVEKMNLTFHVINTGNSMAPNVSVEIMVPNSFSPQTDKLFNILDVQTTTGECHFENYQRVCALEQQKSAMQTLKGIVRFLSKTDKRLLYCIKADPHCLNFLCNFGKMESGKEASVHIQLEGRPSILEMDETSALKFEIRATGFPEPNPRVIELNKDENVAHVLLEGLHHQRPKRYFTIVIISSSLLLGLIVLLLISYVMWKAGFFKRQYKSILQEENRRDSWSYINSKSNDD
T1 sequence (P26010 20-798): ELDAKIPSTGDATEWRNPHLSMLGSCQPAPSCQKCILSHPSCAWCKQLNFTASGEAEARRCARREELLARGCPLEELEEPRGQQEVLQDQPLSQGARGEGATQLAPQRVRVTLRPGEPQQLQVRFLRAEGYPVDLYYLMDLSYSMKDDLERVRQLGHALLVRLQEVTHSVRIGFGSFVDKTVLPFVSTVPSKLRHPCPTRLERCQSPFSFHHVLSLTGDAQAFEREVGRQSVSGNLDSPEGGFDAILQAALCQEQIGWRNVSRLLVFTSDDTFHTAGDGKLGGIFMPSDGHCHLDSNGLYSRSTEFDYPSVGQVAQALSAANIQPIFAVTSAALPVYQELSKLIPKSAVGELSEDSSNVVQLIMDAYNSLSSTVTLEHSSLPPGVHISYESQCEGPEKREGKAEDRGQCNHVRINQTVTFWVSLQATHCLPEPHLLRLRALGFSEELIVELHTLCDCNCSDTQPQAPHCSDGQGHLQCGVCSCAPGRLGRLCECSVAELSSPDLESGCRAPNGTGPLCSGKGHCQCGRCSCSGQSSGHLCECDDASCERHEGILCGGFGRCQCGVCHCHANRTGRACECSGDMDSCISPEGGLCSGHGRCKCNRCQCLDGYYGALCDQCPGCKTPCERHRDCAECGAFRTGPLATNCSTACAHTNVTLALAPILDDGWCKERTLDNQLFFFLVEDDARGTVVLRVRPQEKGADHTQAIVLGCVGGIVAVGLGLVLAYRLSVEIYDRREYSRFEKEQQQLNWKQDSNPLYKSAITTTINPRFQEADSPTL
Nature of the experiment: VCAM antagonistic activity (VCAM-1/α4β7 binding assay), RPMI-8866 cell adhesion. To be noted: recombinant human VCAM-1, 4 mM MnCl2, read-out: VCAM/α 4 β 7 antagonistic activity to integrin (IC50). It counts as cell-based. The procedure: (Test Example) VCAM Antagonistic Activity (VCAM-1/α4β7 Binding Assay):
The capacity of a test substance antagonistic to the binding of lymphoma cell strain RPMI-8866 of human B cells, known to express integrin α4β7, with VCAM-1 was determined.
100 μl/well of a solution (500 ng/ml ) of recombinant human VCAM-1 (R & D systems) diluted with buffer A (0.1 M NaHCO3, pwH 9.6) was added to a micro titer plate having 96 wells (Nunc Maxisorp). After the incubation at 4° C. overnight, unbound VCAM-1 was removed by once washing with PBS. After completion of the washing, a buffer (buffer B) obtained by diluting Block Ace® (Dainippon Pharmaceutical Co., Ltd.) with PBS to 1/4 concentration was added in an amount of 150 μl/well. After the incubation at room temperature for 1 hour, buffer B was removed and the plate was washed with PBS once.
RPMI-8866 cells were incubated in Dulbecco modified Eagle medium containing 10 μg/ml of Calcein-AM (Wako Pure Chemical Industries, Ltd.) (SIGMA, hereinafter referred to as “DMEM”) at 37° C. for 30 minutes to label them with fluorescence. The cells were again suspended in a binding buffer (DMEM containing 20 mM HEPES, 0.1% BSA) containing 4 mM of MnCl2.
50 μl of a test substance of various concentrations obtained by the dilution with the binding buffer was added to the plate. Immediately thereafter, 50 μl (final volume: 100 μl/well) of the fluorescent RPMI-8866 cells (4×10^6 cells/ml) were added thereto, and they were incubated at room temperature for 30 minutes. After the shaking on a plate shaker (IKA MTS-4) at 800 rpm for 30 seconds, the solution was immediately removed to remove the unbound cells. The fluorescence quantity of the bound cells remaining in the wells was determined with a fluorescent plate reader (Wallac 1420 ARVO multi-label counter) (filter excitation wave length: 485 nml, emission wave length: 535 nm). The fluorescent strength thus obtained is proportional to the number of RPMI-8866 cells bound to VCAM-1 and remaining on the plate. The binding rate of each test material in various concentrations was determined while the fluorescent strength of the test material-free well was determined to be 100%. The concentration IC50 for the 50% binding inhibition was calculated.
`COc1ccc(NNC(=O)[C@H]2CC[C@H](C(=O)N[C@@H](Cc3ccc(-c4c(OC)cccc4OC)cc3)C(=O)O)CC2)cc1` [Example 51, N-[Trans-4-(4-methoxyphenylhydrazinocarbonyl)cyclohexane-1-carbonyl]-4-(2,6-dimethoxyphenyl)-L-phenylalanine]: the IC50 is not above 200 nM.

For the compound `O=C(O)[C@H](Cc1ccc(OCc2c(Cl)cccc2Cl)cc1)NC(=O)[C@H]1CC[C@H](C(=O)NNc2ccc(Br)cc2)CC1` [Example 4, N-[Trans-4-(4-bromophenylhydrazinocarbonyl)cyclohexane-1-carbonyl]-O-(2,6-dichlorobenzyl)-L-tyrosine], the IC50 fell in the range of 200 to 1000 nM.

Consider `O=C(O)[C@H](Cc1ccc(OCc2c(Cl)cccc2Cl)cc1)NC(=O)[C@H]1CC[C@H](C(=O)NNc2ccccc2)CC1` [Example 3, N-(Trans-4-phenylhydrazinocarbonylcyclohexane-1-carbonyl)-O-(2,6-dichlorobenzyl)-L-tyrosine], for which the IC50 was not above 200 nM.

In the case of `Cc1ccc(NNC(=O)[C@H]2CC[C@H](C(=O)N[C@@H](Cc3ccc(OCc4c(Cl)cccc4Cl)cc3)C(=O)O)CC2)cc1` [Example 34], the IC50 is not above 200 nM.

Take `O=C(Nc1ccc(C[C@H](NC(=O)[C@H]2CC[C@H](C(=O)O)CC2)C(=O)O)cc1)c1snnc1-c1ccccc1` [Example 45, N-(Trans-4-carboxycyclohexane-1-carbonyl)-4-{[(4-phenyl-1,2,3-thiadiazole-5-yl)carbonyl]amino}-L-phenylalanine]: the IC50 was not above 200 nM.

Take `COc1cccc(OC)c1-c1ccc(C[C@H](NC(=O)[C@H]2CC[C@H](C(=O)O)CC2)C(=O)O)cc1` [Example 50, N-(Trans-4-carboxycyclohexane-1-carbonyl)-4-(2,6-dimethoxyphenyl)-L-phenylalanine]: the IC50 was not above 200 nM.

As for `O=C(O)[C@H](Cc1ccc(OCc2c(Cl)cccc2Cl)cc1)NC(=O)[C@H]1CC[C@H](C(=O)O)CC1` [Example 2, N-(Trans-4-carboxycyclohexane-1-carbonyl)-O-(2,6-dichlorobenzyl)-L-tyrosine], the IC50 is not above 200 nM.

As for `COc1ccc(NNC(=O)[C@H]2CC[C@H](C(=O)N[C@@H](Cc3ccc(OCc4c(Cl)cccc4Cl)cc3)C(=O)O)CC2)cc1` [Example 14], the IC50 was not above 200 nM.

For `COc1ccc(NNC(=O)[C@H]2CC[C@H](C(=O)N[C@@H](Cc3ccc(NC(=O)c4snnc4-c4ccccc4)cc3)C(=O)O)CC2)cc1` [Example 46, N-[Trans-4-(4-methoxyphenylhydrazinocarbonyl)cyclohexane-1-carbonyl]-4-{[(4-phenyl-1,2,3-thiadiazole-5-yl)carbonyl]amino}-L-phenyl-alanine], the IC50 is not above 200 nM.

Turning to `COc1cccc(NNC(=O)[C@H]2CC[C@H](C(=O)N[C@@H](Cc3ccc(OCc4c(Cl)cccc4Cl)cc3)C(=O)O)CC2)c1` [Example 44], the IC50 is not above 200 nM.

As to `O=C(O)[C@H](Cc1ccc(OCc2c(Cl)cccc2Cl)cc1)NC(=O)[C@H]1CC[C@H](C(=O)NNc2ccc(OC(F)(F)F)cc2)CC1` [Example 35], the IC50 was not above 200 nM.

For `O=C(O)[C@H](Cc1ccc(OCc2c(Cl)cccc2Cl)cc1)NC(=O)[C@H]1CC[C@H](C(=O)NCc2ccccc2)CC1` [Example 6], the IC50 fell in the range of 1000 to 5000 nM.

For the origin of these results see patent publication US6610710B2, “Phenylalanine derivatives” (Ajinomoto Co., Inc., priority 1999, dated 2003).
